According to patent US8722849B2, “Polypeptides” (Novo Nordisk A/S, priority 2011, dated 2014):
pEC50: −log10 of the molar value. ≈ marks a conversion by molar mass, not a printed value. Where two headings read alike, the source gives them in different places. Starred links: 1 amine or outer side, 2 acyl side, 3 side chain; linkers in the order of their positions; H or OH if unused. Positions of bridges follow the written chain, without caps; N, C: chain ends. Residues, ends and D or L forms follow the SMILES beside them. *: point of attachment. C20 diacid = O=C(O)CCCCCCCCCCCCCCCCCCC(=O)*; γGlu = O=C(O)[C@H](CCC(=O)[*:2])N[*:1]

How the values were obtained:
[1] = molecular target: T1, human amylin receptor (amylin 3(a) receptor: human calcitonin receptor + RAMP-3) (Homo sapiens, UniProt O60896+P30988); assay: Assay (II)a functional CRE-luciferase assay, human amylin receptor; type: cell-based
T1 construct: expressed in transfected cells; host or cells: BHK570
T1 sequence (P30988 25-474): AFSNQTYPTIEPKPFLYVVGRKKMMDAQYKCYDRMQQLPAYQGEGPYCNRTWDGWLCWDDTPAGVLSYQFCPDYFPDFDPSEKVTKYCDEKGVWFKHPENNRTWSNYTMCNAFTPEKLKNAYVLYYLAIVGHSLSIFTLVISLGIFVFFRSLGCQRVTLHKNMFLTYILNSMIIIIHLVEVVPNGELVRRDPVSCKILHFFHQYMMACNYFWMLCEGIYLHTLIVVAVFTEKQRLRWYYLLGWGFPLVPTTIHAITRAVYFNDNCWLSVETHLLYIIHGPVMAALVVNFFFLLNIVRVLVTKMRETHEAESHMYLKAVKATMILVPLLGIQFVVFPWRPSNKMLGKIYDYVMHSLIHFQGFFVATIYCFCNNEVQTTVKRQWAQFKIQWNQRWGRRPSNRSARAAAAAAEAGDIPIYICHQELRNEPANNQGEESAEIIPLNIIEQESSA
T1 sequence (O60896 24-148 partner): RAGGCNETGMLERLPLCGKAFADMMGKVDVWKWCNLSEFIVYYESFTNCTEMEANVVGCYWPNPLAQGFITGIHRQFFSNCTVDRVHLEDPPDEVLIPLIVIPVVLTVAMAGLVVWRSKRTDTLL

[2] = Assay (IV) determination of solubility; type: physicochemical
Outline: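 Polypeptide in water (~500 nmol/ml) mixed 1:1 with 100 mM glycylglycine (pH 3.0–5.0) or bistrispropane (pH 6.0–8.0) buffers. Held 18 hours at room temperature, then centrifuged. Polypeptide remaining in solution quantified by HPLC.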

[3] = molecular target: T2, human calcitonin receptor (Homo sapiens, UniProt P30988); assay: Assay (II)a functional CRE-luciferase assay, human calcitonin receptor; type: cell-based; details: Table 7; human calcitonin (CTa) receptor
T2 construct: expressed in transfected cells; host or cells: BHK570
T2 sequence (P30988 25-474): T1 sequence (P30988 25-474)

[4] = Assay (III) ThT fibrillation assay for physical stability; type: physicochemical; details: ThT fibrillation assay
Source text: ASSAY (III)—ThT Fibrillation Assays for the Assessment of Physical Stability of Protein formulations Low physical stability of a polypeptide may lead to amyloid fibril formation, which is observed as well-ordered, thread-like macromolecular structures in the sample eventually resulting in gel formation. This has traditionally been measured by visual inspection of the sample. However, that kind of measurement is very subjective and depending on the observer. Therefore, the application of a small molecule indicator probe is much more advantageous. Thioflavin T (ThT) is such a probe and has a distinct fluorescence signature when binding to fibrils [Naiki et al. (1989) Anal. Biochem. 177, 244-249; LeVine (1999) Methods. Enzymol. […], 274-284]. The time course for fibril formation can be described by a sigmoidal curve with the following expression [Nielsen et al. (2001) Biochemistry 40, 6036-6046]: [formula] Here, F is the ThT fluorescence at the time t. The constant t0 is the time needed to reach 50% of maximum fluorescence. […] Few of those intermediates nucleate to form a template onto which further intermediates may assembly and the fibrillation proceeds. The lag-time corresponds to the interval in which the critical mass of nucleus is built up and the apparent rate constant is the rate with which the fibril itself is formed. Sample Preparation Samples were prepared freshly before each assay. Each sample composition is described in each example. The pH of the sample was adjusted to the desired value using appropriate amounts of concentrated NaOH and HClO4 or HCl. Thioflavin T was added to the samples from a stock solution in H2O to a final concentration of 1 μM. Sample aliquots of 200 μl were placed in a 96 well microtiter plate (Packard OptiPlate™-96, white polystyrene). Usually, four or eight replica of each sample (corresponding to one test condition) were placed in one column of wells. The plate was sealed with Scotch Pad (Qiagen). Incubation and Fluorescence Measurement Incubation at given temperature, shaking and measurement of the ThT fluorescence emission were done in a Fluoroskan Ascent FL fluorescence platereader or Varioskan platereader (Thermo Labsystems). The temperature was adjusted to 37° C. The orbital shaking was adjusted to 960 rpm with an amplitude of 1 mm in all the presented data. Fluorescence measurement was done using excitation through a 444 nm filter and measurement of emission through a 485 nm filter. Each run was initiated by incubating the plate at the assay temperature for 10 min. The plate was measured every 20 minutes for a desired period of time. Between each measurement, the plate was shaken and heated as described. Data Handling The measurement points were saved in Microsoft Excel format for further processing and curve drawing and fitting was performed using GraphPad Prism. The background emission from ThT in the absence of fibrils was negligible. The data points are typically a mean of four or eight samples and shown with standard deviation error bars. Only data obtained in the same experiment (i.e. samples on the same plate) are presented in the same graph ensuring a relative measure of fibrillation between experiments. The data set may be fitted to Eq. (1). However, since full sigmodial curves in this case are not always achieved during the measurement time, the degree of fibrillation is expressed as ThT fluorescence tabulated as the mean of the samples and shown with the standard deviation at various time points. Measurement of Initial and Final Concentrations The polypeptide concentration in each of the tested formulations were measured both before application in the ThT fibrillation assay (“Initial”) and after completion of the ThT fibrillation (“After ThT assay”). Concentrations were determined by reverse HPLC methods using a pramlintide standard as a reference. Before measurement after completion 150 μl was collected from each of the replica and transferred to an Eppendorf tube. […]

[5] = Table 2, BHK amylin 3(a)-receptor/CRE-luc cells

For `CC[C@H](C)[C@H](NC(=O)[C@@H]1CCCN1C(=O)CNC(=O)[C@H](Cc1ccccc1)NC(=O)[C@H](CC(N)=O)NC(=O)[C@H](CC(N)=O)NC(=O)[C@H](CO)NC(=O)[C@H](CO)NC(=O)[C@H](CCCNC(=N)N)NC(=O)[C@H](Cc1c[nH]cn1)NC(=O)[C@H](CC(C)C)NC(=O)[C@H](Cc1ccccc1)NC(=O)[C@H](CCC(=O)O)NC(=O)[C@H](C)NC(=O)[C@H](CC(C)C)NC(=O)[C@H](CCCNC(=N)N)NC(=O)[C@H](CCC(N)=O)NC(=O)[C@@H](NC(=O)[C@H](C)NC(=O)[C@@H]1CSSC[C@H](NC(=O)[C@H](CCC(=O)O)NC(=O)CC[C@H](NC(=O)CCCCCCCCCCCCCCCCCCC(=O)O)C(=O)O)C(=O)N[C@@H](CC(N)=O)C(=O)N[C@@H]([C@@H](C)O)C(=O)N[C@@H](C)C(=O)N[C@@H]([C@@H](C)O)C(=O)N1)[C@@H](C)O)C(=O)N[C@@H](CC(C)C)C(=O)N1CCC[C@H]1C(=O)N1CCC[C@H]1C(=O)N[C@H](C(=O)N[C@@H](CC(N)=O)C(=O)N[C@H](C(=O)NCC(=O)N[C@@H](CO)C(=O)N[C@@H](CC(N)=O)C(=O)N[C@H](C(=O)N[C@@H](Cc1ccc(O)cc1)C(N)=O)[C@@H](C)O)C(C)C)[C@@H](C)O` [Example 5, N-alpha-[(S)-4-Carboxy-4-(19-carboxynonadecanoylamino)butyryl]-[Glu1,Glu14,His17,Arg18]-pramlintide] ({C20 diacid-γGlu}-ECNTATCATQRLAEFLHRSSNNFGPILPPTNVGSNTY-NH2; disulfide 2-7 (inferred); C-terminus assumed), the pEC50 [1, 5] was 9.45, the solubility at 18 h ([2]; pH 3.0, read-out: Solubility pH 3.0) was >200 µM and the “Solubility pH 4.0 (μM)” value ([2]; pH 4.0, 18 hours at room temperature, Table 2) was >200 μM. For the same compound, the solubility at 18 h ([2]; pH 4.0, read-out: Solubility pH 4.0) was >200 µM, the solubility at 18 h ([2]; pH 5.0, read-out: Solubility pH 5.0) was 62 µM (≈ 278 µg/mL) and the solubility at 18 h ([2]; pH 6.0, read-out: Solubility pH 6.0) was 164 µM (≈ 734 µg/mL). The solubility at 18 h ([2]; pH 6.5, read-out: Solubility pH 6.5) was 181 µM (≈ 810 µg/mL), the “Solubility pH 7.0 (μM)” value ([2]; pH 7.0, 18 hours at room temperature, Table 3) was >200 μM and the solubility at 18 h ([2]; pH 7.0, read-out: Solubility pH 7.0) was >200 µM. The solubility at 18 h ([2]; pH 7.5, read-out: Solubility pH 7.5) was >200 µM, the solubility at 18 h ([2]; pH 8.0, read-out: Solubility pH 8.0) was >200 µM and the pEC50 [3] was 8.78. For the same compound, the “ThT pH 4.0 lag time (h)” value [4] was 4.4 h.
A pEC50 [1, 5] of 9.82, a solubility at 18 h ([2]; bistrispropane buffer, pH 6, pH 6.0, read-out: Solubility pH 6.0) of 6 µM (≈ 28.2 µg/mL) and a solubility at 18 h ([2]; bistrispropane buffer, pH 7, pH 7.0, read-out: Solubility pH 7.0) of 1 µM (≈ 4.7 µg/mL) were found for `CC[C@H](C)[C@H](NC(=O)[C@@H]1CCCN1C(=O)CNC(=O)[C@H](Cc1ccccc1)NC(=O)[C@H](CC(N)=O)NC(=O)[C@H](CC(N)=O)NC(=O)[C@H](CO)NC(=O)[C@H](CO)NC(=O)[C@H](Cc1c[nH]cn1)NC(=O)[C@@H](NC(=O)[C@H](CC(C)C)NC(=O)[C@H](Cc1ccccc1)NC(=O)[C@H](CCC(=O)O)NC(=O)[C@H](C)NC(=O)[C@H](CC(C)C)NC(=O)[C@H](CCCNC(=N)N)NC(=O)[C@H](CCC(N)=O)NC(=O)[C@@H](NC(=O)[C@H](C)NC(=O)[C@@H]1CSSC[C@H](NC(=O)[C@H](Cc2c[nH]cn2)NC(=O)[C@H](Cc2c[nH]cn2)NC(=O)[C@H](Cc2c[nH]cn2)NC(=O)CC[C@H](NC(=O)CCCCCCCCCCCCCCCCCCC(=O)O)C(=O)O)C(=O)N[C@@H](CC(N)=O)C(=O)N[C@@H]([C@@H](C)O)C(=O)N[C@@H](C)C(=O)N[C@@H]([C@@H](C)O)C(=O)N1)[C@@H](C)O)C(C)C)C(=O)N[C@@H](CC(C)C)C(=O)N1CCC[C@H]1C(=O)N1CCC[C@H]1C(=O)N[C@H](C(=O)N[C@@H](CC(N)=O)C(=O)N[C@H](C(=O)NCC(=O)N[C@@H](CO)C(=O)N[C@@H](CC(N)=O)C(=O)N[C@H](C(=O)N[C@@H](Cc1ccc(O)cc1)C(N)=O)[C@@H](C)O)C(C)C)[C@@H](C)O` [Example 20, N-alpha-[(S)-4-Carboxy-4-(19-carboxynonadecanoylamino)butyryl]-His-His-[His1,Glu14]-pramlintide] ({C20 diacid-γGlu}-HHHCNTATCATQRLAEFLVHSSNNFGPILPPTNVGSNTY-NH2; disulfide 4-9 (inferred); C-terminus assumed) in this work. For the same compound, the solubility at 18 h ([2]; bistrispropane buffer, pH 7.5, pH 7.5, read-out: Solubility pH 7.5) was 13 µM (≈ 61.1 µg/mL), the solubility at 18 h ([2]; bistrispropane buffer, pH 8, pH 8.0, read-out: Solubility pH 8.0) was 73 µM (≈ 343 µg/mL) and the solubility at 18 h ([2]; glycylglycine buffer, pH 3, pH 3.0, read-out: Solubility pH 3.0) was > 200 µM. The solubility at 18 h ([2]; glycylglycine buffer, pH 4, pH 4.0, 18 hours at room temperature, Table 2, read-out: Solubility pH 4.0) was > 200 µM, the solubility at 18 h ([2]; glycylglycine buffer, pH 4, pH 4.0, read-out: Solubility pH 4.0) was > 200 µM and the solubility at 18 h ([2]; glycylglycine buffer, pH 5, pH 5.0, read-out: Solubility pH 5.0) was > 200 µM. For the same compound, the pEC50 [3] was 9.13 and the “ThT pH 4.0 lag time (h)” value [4] was 1.7 h.
For `CC[C@H](C)[C@H](NC(=O)[C@@H]1CCCN1C(=O)CNC(=O)[C@H](Cc1ccccc1)NC(=O)[C@H](CC(N)=O)NC(=O)[C@H](CC(N)=O)NC(=O)[C@H](CO)NC(=O)[C@H](CO)NC(=O)[C@H](Cc1c[nH]cn1)NC(=O)[C@H](CCCNC(=N)N)NC(=O)[C@H](CC(C)C)NC(=O)[C@H](Cc1ccccc1)NC(=O)[C@H](CCC(=O)O)NC(=O)[C@H](C)NC(=O)[C@H](CC(C)C)NC(=O)[C@H](CCCNC(=N)N)NC(=O)[C@H](CCC(N)=O)NC(=O)[C@@H](NC(=O)[C@H](C)NC(=O)[C@@H]1CSSC[C@H](NC(=O)[C@H](CCCNC(=N)N)NC(=O)[C@H](CCC(=O)O)NC(=O)CC[C@H](NC(=O)CCCCCCCCCCCCCCCCCCC(=O)O)C(=O)O)C(=O)N[C@@H](CC(N)=O)C(=O)N[C@@H]([C@@H](C)O)C(=O)N[C@@H](C)C(=O)N[C@@H]([C@@H](C)O)C(=O)N1)[C@@H](C)O)C(=O)N[C@@H](CC(C)C)C(=O)N1CCC[C@H]1C(=O)N1CCC[C@H]1C(=O)N[C@H](C(=O)N[C@@H](CC(N)=O)C(=O)N[C@H](C(=O)NCC(=O)N[C@@H](CO)C(=O)N[C@@H](CC(N)=O)C(=O)N[C@H](C(=O)N1CCC[C@H]1C(N)=O)[C@@H](C)O)C(C)C)[C@@H](C)O` [Example 156, N-alpha-[(S)-4-Carboxy-4-(19-carboxynonadecanoylamino)butyryl]-Glu-[Arg1,Glu14,Arg17,Pro37]-pramlintide] ({C20 diacid-γGlu}-ERCNTATCATQRLAEFLRHSSNNFGPILPPTNVGSNTP-NH2; disulfide 3-8 (inferred)), the pEC50 ([1]; Table 5) was 10.18, the pEC50 [3] was 9.77 and the “ThT pH 4.0 lag time” value [4] was >45 h. The “ThT pH 4.0 lag time (h)” value [4] was >45 h.
